Data as given in patent US20240409585A1, “MACROCYCLIC IMMUNOMODULATORS” (priority 2021, published 2024).
Numbered stars: 1 amine (or outer) side, 2 acyl side, 3 side chain; on linkers, the order of the positions; unused ones are H or OH. Bridge positions count the residues as written; N and C are the ends. Square brackets hold non-standard residues; d marks the D form. Peptide text beside a SMILES is read from it. X47 = O=C([C@H](Cc1ccc(-c2cccc(OC(F)(F)F)c2)cc1)N[*:1])[*:2]; X22 = NC(=O)c1cccc(-c2ccc(C[C@H](N[*:1])C(=O)[*:2])cc2)c1; Phe(4-(4-F-Ph)) = N[C@@H](Cc1ccc(-c2ccc(F)cc2)cc1)C(=O)O; X25 = N#CCCc1ccc(-c2ccc(C[C@H](N[*:1])C(=O)[*:2])cc2)cc1; X44 = COc1cc(F)cc(-c2ccc(C[C@H](N[*:1])C(=O)[*:2])cc2)c1; X29 = O=C([C@H](Cc1ccc(-c2cc(F)cc(F)c2)cc1)N[*:1])[*:2]; X30 = CCOc1cccc(-c2ccc(C[C@H](N[*:1])C(=O)[*:2])cc2)c1; X33 = O=C([C@H](Cc1ccc(-c2cccc(Cl)c2)cc1)N[*:1])[*:2]; X36 = O=C([C@H](Cc1ccc(-c2ccsc2)cc1)N[*:1])[*:2]; Bip = N[C@@H](Cc1ccc(-c2ccccc2)cc1)C(=O)O; Phe(3-Br) = N[C@@H](Cc1cccc(Br)c1)C(=O)O; 2Thi = N[C@@H](Cc1cccs1)C(=O)O; Cit = NC(=O)NCCC[C@H](N)C(=O)O; NMeA = CN[C@@H](C)C(=O)O; Dab = NCC[C@H](N)C(=O)O

Target: T1, PE-labeled human PD-L1-Ig binding to Jurkat cell line over-expressing human PD-1 (Jurkat-PD-1) (Homo sapiens, UniProt Q15116)
T1 construct: expressed in transfected cells; host or cells: Jurkat
Assay: Jurkat-PD-1 Cell Binding High-Content Screening Assay (CBA): Method 1
Settings: Jurkat-hPD-1 cells, PE-labeled PD-L1-Ig 20 nM final; read-out: Jurkat HPDL1 PD1 IC50 (uM) (Method 1)

T1 sequence (Q15116 25-288): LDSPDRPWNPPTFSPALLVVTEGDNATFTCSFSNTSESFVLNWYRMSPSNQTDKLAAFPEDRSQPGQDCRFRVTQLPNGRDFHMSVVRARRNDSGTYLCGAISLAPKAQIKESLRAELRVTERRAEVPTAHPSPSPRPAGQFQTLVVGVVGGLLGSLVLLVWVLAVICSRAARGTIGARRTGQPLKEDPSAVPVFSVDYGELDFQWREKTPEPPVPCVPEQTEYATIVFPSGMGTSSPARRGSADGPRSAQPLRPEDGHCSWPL

IC50 [µM]	Compound
0.25	CC(C)C[C@@H]1NC(=O)[C@H](CCN)NC(=O)[C@@H](CC(C)C)NC(=O)[C@H](C)N(C)C(=O)[C@H](CCCNC(=N)N)NC(=O)[C@H](Cc2ccc(-c3ccc(CCC#N)cc3)cc2)NC(=O)[C@H](C(C)C)NC(=O)[C@H](Cc2c[nH]c3ccccc23)NC(=O)[C@H](CC(=O)O)NC(=O)[C@H](Cc2ccc(O)cc2)NC(=O)[C@H](CC(N)=O)NC(=O)CSC[C@@H](C(=O)N[C@@H](C)C(N)=O)NC(=O)[C@H]([C@@H](C)O)NC(=O)[C@H](C(C)C)NC1=O [Compound 1213] ({CH2CO}-NYDWV[X25]R[NMeA][dL][Dab]LVTCA-NH2; thioether N-14)
0.05	CC(C)C[C@@H]1NC(=O)[C@H](CCCNC(=N)N)NC(=O)[C@@H](CC(C)C)NC(=O)[C@H]2CCCN2C(=O)[C@H](CCCNC(=N)N)NC(=O)[C@H](Cc2ccc(-c3ccccc3)cc2)NC(=O)[C@H](C(C)C)NC(=O)[C@H](Cc2c[nH]c3ccccc23)NC(=O)[C@H](CC(=O)O)NC(=O)[C@H](Cc2ccc(O)cc2)NC(=O)[C@H](CC(N)=O)NC(=O)CSC[C@@H](C(=O)N[C@@H](C)C(N)=O)NC(=O)[C@H]([C@@H](C)O)NC(=O)[C@H](C(C)C)NC1=O [Compound 1214] ({CH2CO}-NYDWV[Bip]R[dP][dL]RLVTCA-NH2; thioether N-14)
0.08	CC(C)C[C@@H]1NC(=O)[C@H](Cc2c[nH]c3ccccc23)NC(=O)[C@H](CC(=O)O)NC(=O)[C@H](Cc2ccc(O)cc2)NC(=O)[C@H](CC(N)=O)NC(=O)CSC[C@@H](C(=O)N[C@@H](C)C(N)=O)NC(=O)[C@H]([C@@H](C)O)NC(=O)[C@H](C(C)C)NC(=O)[C@H](CC(C)C)NC(=O)[C@H](CCCNC(=N)N)NC(=O)[C@@H](CC(C)C)NC(=O)[C@H](C)N(C)C(=O)[C@H](CCCNC(=N)N)NC(=O)[C@H](Cc2ccc(-c3ccccc3)cc2)NC1=O [Compound 1215] ({CH2CO}-NYDWL[Bip]R[NMeA][dL]RLVTCA-NH2; thioether N-14)
0.03	CC(C)C[C@@H]1NC(=O)[C@H](CCCNC(=N)N)NC(=O)[C@@H](CC(C)C)NC(=O)[C@H](C)N(C)C(=O)[C@H](C(C)C)NC(=O)[C@H](Cc2ccc(-c3ccccc3)cc2)NC(=O)[C@H](C(C)C)NC(=O)[C@H](Cc2c[nH]c3ccccc23)NC(=O)[C@H](CC(=O)O)NC(=O)[C@H](Cc2ccc(O)cc2)NC(=O)[C@H](CC(N)=O)NC(=O)CSC[C@@H](C(=O)N[C@@H](C)C(N)=O)NC(=O)[C@H]([C@@H](C)O)NC(=O)[C@H](C(C)C)NC1=O [Compound 1216] ({CH2CO}-NYDWV[Bip]V[NMeA][dL]RLVTCA-NH2; thioether N-14)
0.06	CC(C)C[C@@H]1NC(=O)[C@H](CCN)NC(=O)[C@@H](CC(C)C)NC(=O)[C@H](C)N(C)C(=O)[C@H](CCCNC(=N)N)NC(=O)[C@H](Cc2ccc(-c3ccccc3)cc2)NC(=O)[C@H](C(C)C)NC(=O)[C@H](Cc2cccc(Br)c2)NC(=O)[C@H](CC(=O)O)NC(=O)[C@H](Cc2ccc(O)cc2)NC(=O)[C@H](CC(N)=O)NC(=O)CSC[C@@H](C(=O)N[C@@H](C)C(N)=O)NC(=O)[C@H]([C@@H](C)O)NC(=O)[C@H](C(C)C)NC1=O [Compound 1217] ({CH2CO}-NYD[Phe(3-Br)]V[Bip]R[NMeA][dL][Dab]LVTCA-NH2; thioether N-14)
0.2	CC(C)C[C@@H]1NC(=O)[C@H](CCN)NC(=O)[C@@H](CC(C)C)NC(=O)[C@H](C)N(C)C(=O)[C@H](CCCNC(=N)N)NC(=O)[C@H](Cc2ccc(-c3ccccc3)cc2)NC(=O)[C@H](C(C)C)NC(=O)[C@H](Cc2cccs2)NC(=O)[C@H](CC(=O)O)NC(=O)[C@H](Cc2ccc(O)cc2)NC(=O)[C@H](CC(N)=O)NC(=O)CSC[C@@H](C(=O)N[C@@H](C)C(N)=O)NC(=O)[C@H]([C@@H](C)O)NC(=O)[C@H](C(C)C)NC1=O [Compound 1218] ({CH2CO}-NYD[2Thi]V[Bip]R[NMeA][dL][Dab]LVTCA-NH2; thioether N-14)
0.26	CC(C)C[C@@H]1NC(=O)[C@H](CCN)NC(=O)[C@@H](CC(C)C)NC(=O)[C@H](C)N(C)C(=O)[C@H](CCCNC(=N)N)NC(=O)[C@H](Cc2ccc(-c3ccccc3)cc2)NC(=O)[C@H](C(C)C)NC(=O)[C@H](Cc2cccs2)NC(=O)[C@H](CC(=O)O)NC(=O)[C@H](Cc2ccc(O)cc2)NC(=O)[C@H](CC(N)=O)NC(=O)CSC[C@@H](C(=O)N[C@@H](C)C(N)=O)NC(=O)[C@H]([C@@H](C)O)NC(=O)[C@H](C(C)C)NC1=O [Compound 1219] ({CH2CO}-NYD[2Thi]V[Bip]R[NMeA][dL][Dab]LVTCA-NH2; thioether N-14)
0.26	CC(C)C[C@@H]1NC(=O)[C@H](CCN)NC(=O)[C@@H](CC(C)C)NC(=O)[C@H](C)N(C)C(=O)[C@H](CCCNC(=N)N)NC(=O)[C@H](Cc2ccc(-c3cc(F)cc(F)c3)cc2)NC(=O)[C@H](C(C)C)NC(=O)[C@H](Cc2c[nH]c3ccccc23)NC(=O)[C@H](CC(=O)O)NC(=O)[C@H](Cc2ccc(O)cc2)NC(=O)[C@H](CC(N)=O)NC(=O)CSC[C@@H](C(=O)N[C@@H](C)C(N)=O)NC(=O)[C@H]([C@@H](C)O)NC(=O)[C@H](C(C)C)NC1=O [Compound 1220] ({CH2CO}-NYDWV[X29]R[NMeA][dL][Dab]LVTCA-NH2; thioether N-14)
0.22	CCOc1cccc(-c2ccc(C[C@@H]3NC(=O)[C@H](C(C)C)NC(=O)[C@H](Cc4c[nH]c5ccccc45)NC(=O)[C@H](CC(=O)O)NC(=O)[C@H](Cc4ccc(O)cc4)NC(=O)[C@H](CC(N)=O)NC(=O)CSC[C@@H](C(=O)N[C@@H](C)C(N)=O)NC(=O)[C@H]([C@@H](C)O)NC(=O)[C@H](C(C)C)NC(=O)[C@H](CC(C)C)NC(=O)[C@H](CCN)NC(=O)[C@@H](CC(C)C)NC(=O)[C@H](C)N(C)C(=O)[C@H](CCCNC(=N)N)NC3=O)cc2)c1 [Compound 1221] ({CH2CO}-NYDWV[X30]R[NMeA][dL][Dab]LVTCA-NH2; thioether N-14)
0.12	CC(C)C[C@@H]1NC(=O)[C@H](CCN)NC(=O)[C@@H](CC(C)C)NC(=O)[C@H](C)N(C)C(=O)[C@H](CCCNC(=N)N)NC(=O)[C@H](Cc2ccc(-c3cccc(Cl)c3)cc2)NC(=O)[C@H](C(C)C)NC(=O)[C@H](Cc2c[nH]c3ccccc23)NC(=O)[C@H](CC(=O)O)NC(=O)[C@H](Cc2ccc(O)cc2)NC(=O)[C@H](CC(N)=O)NC(=O)CSC[C@@H](C(=O)N[C@@H](C)C(N)=O)NC(=O)[C@H]([C@@H](C)O)NC(=O)[C@H](C(C)C)NC1=O [Compound 1222] ({CH2CO}-NYDWV[X33]R[NMeA][dL][Dab]LVTCA-NH2; thioether N-14)
0.32	COc1cc(F)cc(-c2ccc(C[C@@H]3NC(=O)[C@H](C(C)C)NC(=O)[C@H](Cc4c[nH]c5ccccc45)NC(=O)[C@H](CC(=O)O)NC(=O)[C@H](Cc4ccc(O)cc4)NC(=O)[C@H](CC(N)=O)NC(=O)CSC[C@@H](C(=O)N[C@@H](C)C(N)=O)NC(=O)[C@H]([C@@H](C)O)NC(=O)[C@H](C(C)C)NC(=O)[C@H](CC(C)C)NC(=O)[C@H](CCN)NC(=O)[C@@H](CC(C)C)NC(=O)[C@H](C)N(C)C(=O)[C@H](CCCNC(=N)N)NC3=O)cc2)c1 [Compound 1223] ({CH2CO}-NYDWV[X44]R[NMeA][dL][Dab]LVTCA-NH2; thioether N-14)
0.04	CC(C)C[C@@H]1NC(=O)[C@H](CCN)NC(=O)[C@@H](CC(C)C)NC(=O)[C@H](C)N(C)C(=O)[C@H](CCCNC(=N)N)NC(=O)[C@H](Cc2ccc(-c3ccsc3)cc2)NC(=O)[C@H](C(C)C)NC(=O)[C@H](Cc2c[nH]c3ccccc23)NC(=O)[C@H](CC(=O)O)NC(=O)[C@H](Cc2ccc(O)cc2)NC(=O)[C@H](CC(N)=O)NC(=O)CSC[C@@H](C(=O)N[C@@H](C)C(N)=O)NC(=O)[C@H]([C@@H](C)O)NC(=O)[C@H](C(C)C)NC1=O [Compound 1224] ({CH2CO}-NYDWV[X36]R[NMeA][dL][Dab]LVTCA-NH2; thioether N-14)
0.29	CC(C)C[C@@H]1NC(=O)[C@H](CCN)NC(=O)[C@@H](CC(C)C)NC(=O)[C@H](C)N(C)C(=O)[C@H](CCCNC(=N)N)NC(=O)[C@H](Cc2ccc(-c3cccc(C(N)=O)c3)cc2)NC(=O)[C@H](C(C)C)NC(=O)[C@H](Cc2c[nH]c3ccccc23)NC(=O)[C@H](CC(=O)O)NC(=O)[C@H](Cc2ccc(O)cc2)NC(=O)[C@H](CC(N)=O)NC(=O)CSC[C@@H](C(=O)N[C@@H](C)C(N)=O)NC(=O)[C@H]([C@@H](C)O)NC(=O)[C@H](C(C)C)NC1=O [Compound 1225] ({CH2CO}-NYDWV[X22]R[NMeA][dL][Dab]LVTCA-NH2; thioether N-14)
0.04	CC(C)C[C@@H]1NC(=O)[C@H](CCCNC(=N)N)NC(=O)[C@@H](CC(C)C)NC(=O)[C@H](C)N(C)C(=O)[C@H](CCCNC(N)=O)NC(=O)[C@H](Cc2ccc(-c3ccccc3)cc2)NC(=O)[C@H](C(C)C)NC(=O)[C@H](Cc2c[nH]c3ccccc23)NC(=O)[C@H](CC(=O)O)NC(=O)[C@H](Cc2ccc(O)cc2)NC(=O)[C@H](CC(N)=O)NC(=O)CSC[C@@H](C(=O)N[C@@H](C)C(N)=O)NC(=O)[C@H](CO)NC(=O)[C@H](C(C)C)NC1=O [Compound 1227] ({CH2CO}-NYDWV[Bip][Cit][NMeA][dL]RLVSCA-NH2; thioether N-14)
0.9	CC(C)C[C@@H]1NC(=O)[C@H](CCN)NC(=O)[C@@H](CC(C)C)NC(=O)[C@H](C)N(C)C(=O)[C@H](CCCNC(=N)N)NC(=O)[C@H](Cc2ccc(-c3cccc(OC(F)(F)F)c3)cc2)NC(=O)[C@H](C(C)C)NC(=O)[C@H](Cc2c[nH]c3ccccc23)NC(=O)[C@H](CC(=O)O)NC(=O)[C@H](Cc2ccc(O)cc2)NC(=O)[C@H](CC(N)=O)NC(=O)CSC[C@@H](C(=O)N[C@@H](C)C(N)=O)NC(=O)[C@H]([C@@H](C)O)NC(=O)[C@H](C(C)C)NC1=O [Compound 1228] ({CH2CO}-NYDWV[X47]R[NMeA][dL][Dab]LVTCA-NH2; thioether N-14)
0.13	CC(C)C[C@@H]1NC(=O)[C@H](CCN)NC(=O)[C@@H](CC(C)C)NC(=O)[C@H](C)N(C)C(=O)[C@H](CCCNC(=N)N)NC(=O)[C@H](Cc2ccc(-c3ccc(F)cc3)cc2)NC(=O)[C@H](C(C)C)NC(=O)[C@H](Cc2c[nH]c3ccccc23)NC(=O)[C@H](CC(=O)O)NC(=O)[C@H](Cc2ccc(O)cc2)NC(=O)[C@H](CC(N)=O)NC(=O)CSC[C@@H](C(=O)N[C@@H](C)C(N)=O)NC(=O)[C@H]([C@@H](C)O)NC(=O)[C@H](C(C)C)NC1=O [Compound 1229] ({CH2CO}-NYDWV[Phe(4-(4-F-Ph))]R[NMeA][dL][Dab]LVTCA-NH2; thioether N-14)
